Reference: patent US10952992B2, “Methods of treating intraocular pressure with activators of Tie-2” (Aerpio Pharmaceuticals, Inc., priority 2015, dated 2021)
Where “and” joins values, the source holds several entries; their conditions need not be identical. Identical values can stand only once.

Columns and labels:
[1] = Example 2 aqueous humor concentrations; format: in vivo, male New Zealand White rabbits; conditions: for Average Peak Concentration, Aqueous Humor: suspension
Method: (§1) To measure the concentration of Compound 1 in plasma and ocular tissues following topical ocular, subcutaneous, and intravitreal administration, New Zealand White rabbits were administered Compound 1, and plasma and ocular samples were collected at pre-determined time points. Compound 1 formulations were prepared fresh on each day of dosing.
(§2) Ocular tissue samples from both eyes of each animal were collected and weights were recorded. Plasma and ocular tissue sample concentrations of Compound 1 were determined by LC-MS/MS.
(§3) Animals were anesthetized for ocular (topical) and intravitreal dosing following the 12IA7 IACUC protocol. Each rabbit received a bolus dose of test formulation either via topical ocular administration 3 times daily on Days 1 and 2 (at 0, 6, and 12 hours), and once on Day 3 (at 0 hours) into both eyes; via intravitreal administration into both eyes once on Day 1 (at 0 hours); or via subcutaneous administration 2 times daily on Days 1 and 2 (at 0 and 8 hours) and once daily on Day 3 (at 0 hours). Doses were given within an approximately 1 hour window each day where applicable.
(§4) On Day 1, for intravitreal administration, or on Day 3, for topical ocular and subcutaneous administration, at the appropriate ocular tissue collection time points, animals were euthanized and both eyes were enucleated immediately. Following enucleation, each eye was rinsed with phosphate-buffered saline. Ocular tissue samples from both eyes of each animal were collected at predetermined time points and weights were recorded. All the samples were frozen immediately on dry ice, and stored at −60° C. to −80° C. pending bioanalysis.
(§5) An LC-MS/MS method was developed for the determination of Compound 1 in rabbit aqueous tissues (plasma, aqueous and vitreous humor) and solid ocular tissue samples. A pre-study standard curve was analyzed to determine the specificity, range, and lower limit of quantitation of the method. Plasma and tissue homogenate study samples were extracted and analyzed. All the samples were treated identically to the standards.
(§6) One eight-point standard curve was used in each analytical batch. To be accepted, each batch must have had at least five of eight standards with accuracy within ±20% of nominal, except at the lower limit of quantification (LLOQ), where ±25% was acceptable.

[2] = Example 2 iris, retina, choroid and cornea tissue concentrations; format: in vivo, male New Zealand White rabbits; conditions: for Average / Conc. (ng/g) OS / Conc. (ng/mL) OS / Conc. (ng/mL) OD / Conc. (ng/g) OD: subcutaneous 5 mg/kg/dose (Group 3), free acid; for Average Peak Concentration, Choroid / Average Peak Concentration, Cornea / Average Peak Concentration, Iris / Average Peak Concentration, Retina: suspension
Method: as §1, §2, §3, §4, §5, §6

[3] = Group 3 (subcutaneous 5 mg/kg/dose, suspension), 2.0 hr
[4] = Group 3 (subcutaneous 5 mg/kg/dose, suspension), 4.0 hr
[5] = Group 3: subcutaneous 5 mg/kg/dose
[6] = Group 5 (intravitreal 2.5 mg/eye, suspension), 6.0 hr
[7] = Group 5 (intravitreal 2.5 mg/eye, suspension), 24 hr
[8] = Group 5 (intravitreal 2.5 mg/eye, suspension), 72 hr
[9] = Group 5: intravitreal 1.54 mg/kg/dose
[10] = Choroid, 1 hr, listed as Compound 1 (free acid)

Compound: COC(=O)N[C@@H](Cc1ccccc1)C(=O)N[C@@H](Cc1ccc(NS(=O)(=O)O)cc1)c1csc(-c2cccs2)n1 [Compound 1 free acid]
- aqueous humor Average Conc. ([1]; Group 3 (subcutaneous 5 mg/kg/dose, suspension), 0.5 hr): 1.21 ng/g
- aqueous humor Average Conc. ([1]; Group 3 (subcutaneous 5 mg/kg/dose, suspension), 1.0 hr): 0.41 ng/g
- aqueous humor Average Conc. [1, 3]: 0.66 ng/g
- aqueous humor Conc. OD [1, 3]: 0.601 ng/mL
- aqueous humor Average Conc. [1, 4]: 0.51 ng/g
- aqueous humor Conc. OS [1, 4]: 0.229 ng/mL
- Average Peak Concentration, Aqueous Humor [1, 5]: 1.21 ng/g
- aqueous humor Average Conc. [1, 6]: 26400 ng/g
- aqueous humor Conc. OD [1, 6]: 34200 ng/mL and 23400 ng/mL
- aqueous humor Average Conc. [1, 7]: 4270 ng/g
- aqueous humor Conc. OD [1, 7]: 3890 ng/mL and 5540 ng/mL
- aqueous humor Average Conc. ([1]; Group 5 (intravitreal 2.5 mg/eye, suspension), 48 hr): 915 ng/g
- aqueous humor Average Conc. [1, 8]: 120 ng/g
- aqueous humor Conc. OD [1, 8]: 145 ng/mL and 94.1 ng/mL
- Average Peak Concentration, Aqueous Humor [1, 9]: 26400 ng/g
- Average ([2]; Choroid, 0.5 hr): 127 ng/g
- Conc. (ng/g) OS ([2]; Choroid, 0.5 hr): 83.1 ng/g and 154 ng/g
- Conc. (ng/mL) OS ([2]; Choroid, 0.5 hr): 7.55 ng/mL and 14.0 ng/mL
- Average ([2]; Choroid, 1 hr): 83.3 ng/g
- Conc. (ng/mL) OD ([2]; Choroid, 1 hr): 8.65 ng/mL
- Conc. (ng/g) OD [2, 10]: 66.4 ng/g and 95.2 ng/g
- Conc. (ng/g) OS [2, 10]: 88.1 ng/g and 83.6 ng/g
- Conc. (ng/mL) OD [2, 10]: 6.04 ng/mL
- Conc. (ng/mL) OS [2, 10]: 8.01 ng/mL and 7.60 ng/mL
- Average ([2]; Choroid, 2 hr): 47.7 ng/g
- Conc. (ng/g) OD ([2]; Choroid, 2 hr): 36.5 ng/g and 46.9 ng/g
- Conc. (ng/g) OS ([2]; Choroid, 2 hr): 53.2 ng/g and 54.3 ng/g
- Conc. (ng/mL) OD ([2]; Choroid, 2 hr): 3.32 ng/mL and 4.26 ng/mL
- Conc. (ng/mL) OS ([2]; Choroid, 2 hr): 4.84 ng/mL and 4.94 ng/mL
- Average ([2]; Choroid, 4 hr): 61.0 ng/g
- Conc. (ng/g) OD ([2]; Choroid, 4 hr): 53.0 ng/g and 51.2 ng/g
- Conc. (ng/mL) OD ([2]; Choroid, 4 hr): 4.82 ng/mL and 4.65 ng/mL
- Average ([2]; Cornea, 0.5 hr): 7.96 ng/g
- Conc. (ng/g) OD ([2]; Cornea, 0.5 hr): 6.05 ng/g
- Conc. (ng/g) OS ([2]; Cornea, 0.5 hr): 9.87 ng/g
- Average ([2]; Cornea, 1 hr): 12.2 ng/g
- Conc. (ng/g) OD ([2]; Cornea, 1 hr): 12.2 ng/g
- Conc. (ng/mL) OS ([2]; Cornea, 1 hr): BLOQ
- Average ([2]; Cornea, 2 hr): 5.65 ng/g
- Conc. (ng/g) OD ([2]; Cornea, 2 hr): 5.65 ng/g
- Conc. (ng/mL) OS ([2]; Cornea, 2 hr): BLOQ
- Average ([2]; Cornea, 4 hr): 15.8 ng/g
- Conc. (ng/g) OD ([2]; Cornea, 4 hr): 10.4 ng/g and 9.32 ng/g
- Conc. (ng/mL) OD ([2]; Cornea, 4 hr): 0.942 ng/mL and 0.847 ng/mL
- Average Peak Concentration, Choroid [2, 5]: 127 ng/g
- Average Peak Concentration, Cornea [2, 5]: 7.96 ng/g
- Average Peak Concentration, Iris [2, 5]: 50.3 ng/g
- Average Peak Concentration, Retina [2, 5]: 38.7 ng/g
- Average Peak Concentration, Choroid [2, 9]: 663575 ng/g
- Average Peak Concentration, Cornea [2, 9]: 54560 ng/g
- Average Peak Concentration, Iris [2, 9]: 210650 ng/g
- Average Peak Concentration, Retina [2, 9]: 1988250 ng/g
- Average ([2]; Iris, 0.5 hr): 50.3 ng/g
- Conc. (ng/g) OS ([2]; Iris, 0.5 hr): 47.0 ng/g and 38.9 ng/g
- Conc. (ng/mL) OS ([2]; Iris, 0.5 hr): 4.27 ng/mL and 3.54 ng/mL
- Average ([2]; Iris, 1 hr): 58.0 ng/g
- Conc. (ng/g) OS ([2]; Iris, 1 hr): 47.6 ng/g and 34.3 ng/g
- Conc. (ng/mL) OS ([2]; Iris, 1 hr): 4.33 ng/mL and 3.12 ng/mL
- Average ([2]; Iris, 2 hr): 27.6 ng/g
- Conc. (ng/g) OD ([2]; Iris, 2 hr): 30.5 ng/g and 32.0 ng/g
- Conc. (ng/g) OS ([2]; Iris, 2 hr): 29.5 ng/g
- Conc. (ng/mL) OD ([2]; Iris, 2 hr): 2.77 ng/mL and 2.91 ng/mL
- Conc. (ng/mL) OS ([2]; Iris, 2 hr): 2.68 ng/mL and 1.67 ng/mL
- Average ([2]; Iris, 4 hr): 17.5 ng/g
- Conc. (ng/g) OD ([2]; Iris, 4 hr): 26.5 ng/g and 17.9 ng/g
- Conc. (ng/g) OS ([2]; Iris, 4 hr): 16.9 ng/g and 8.73 ng/g
- Conc. (ng/mL) OD ([2]; Iris, 4 hr): 2.41 ng/mL and 1.63 ng/mL
- Conc. (ng/mL) OS ([2]; Iris, 4 hr): 1.54 ng/mL and 0.794 ng/mL
- Average ([2]; Retina, 0.5 hr): 38.7 ng/g
- Average ([2]; Retina, 1 hr): 10.2 ng/g
- Conc. (ng/g) OD ([2]; Retina, 1 hr): 10.4 ng/g
- Conc. (ng/g) OS ([2]; Retina, 1 hr): 6.93 ng/g and 13.3 ng/g
- Conc. (ng/mL) OS ([2]; Retina, 1 hr): 0.63 ng/mL and 1.21 ng/mL
- Average ([2]; Retina, 2 hr): 10.5 ng/g
- Conc. (ng/g) OD ([2]; Retina, 2 hr): 6.31 ng/g
- Conc. (ng/g) OS ([2]; Retina, 2 hr): 6.93 ng/g
- Average ([2]; Retina, 4 hr): 35.3 ng/g
- Conc. (ng/mL) OD ([2]; Retina, 4 hr): BLOQ
- Choroid Conc. OS ([2]; choroid homogenate, 6.0 hr, left eye, individual animals, intravitreal 2.5 mg/eye (~1.54 mg/kg), group 5): 63400 ng/mL and 69700 ng/mL
- Choroid Conc. OD ([2]; choroid homogenate, 6.0 hr, right eye, individual animals, intravitreal 2.5 mg/eye (~1.54 mg/kg), group 5): 32800 ng/mL and 75400 ng/mL
